Source: patent US11975009B2, “Use of zinc porphyrin as an antimicrobial” (ZNABLE LLC, priority 2022, dated 2024)

What was measured:
[1] = tested on: PsA PAO1 biofilm; test: PAO1 biofilm on coupons, LIVE/DEAD stain, confocal microscopy; assay type: cell-based, Pseudomonas aeruginosa
Method: FIG. 2A: ZnPor (alone) stained biofilm. […] Length of size bar: […].
FIGS. 15A-15B show the biofilms of PAO1 treated with various concentrations of ZnPor (II) and in combination with PEV2 phage. Biofilms of strain PAO1 were grown on coupons cut from polyethylene in MSG media for approximately 16-18 hours. Overnight media was replaced with fresh PBS and were treated with (FIG. 15B) ZnPor (II) only at concentrations of 5, 10 or 25 μg/mL, and incubated for 2 h, (FIG. 15A) phage PEV2 only (MOI=10:1) for 4 h, or (FIG. 15B) ZnPor (II) treatment for 2 h followed by the addition of phage PEV2 (MOI of 10:1) and incubated for an additional 4 h. Coupons were gently washed in distilled water and were treated with LIVE/DEAD™ stain. All coupons were imaged using confocal laser scanning […] microscopy (CLSM) at 60×. Green=LIVE Red=DEAD.
PAO1 was grown overnight in MSG at 37 C with shaking. CDC Bioreactors with PE coupons were inoculated to a final OD of 0.15 in cation adjusted Mueller Hinton broth. Biofilms were grown 16-18 h at 37 degrees C. with 50 rpm stirring. Control biofilm is shown (FIG. 20A). All overnight media in bioreactors were replaced with fresh PBS. Bioreactors treated with ZnPor (II) at 4 μg/mL were left to incubate for 2 hours without stirring. Bioreactors treated with either whole PEV2 phage or the purified DNA genome of PEV2 were incubated for 24 hours without stirring. […]

[2] = tested on: SA biofilm; test: SA biofilm model with bioluminescence reporter; assay type: cell-based, Staphylococcus aureus; details: escalating doses of ZnPor vs PBS
Method: (§1) Representative of one experiment.
Biofilm formation was an important defense mechanism utilized by bacteria and was associated with bacterial phenotypes that predict worse clinical outcomes in CF. A biofilm model was deployed using an SA strain with genetically embedded bioluminescence reporter to gauge efficacy of ZnPor against SA biofilm. Plastic plates were coated with bioluminescent SA and treated with escalating doses of ZnPor or PBS. Bioluminescence was measured via spectrophotometer.

[3] = tested on: Human airway epithelial (BEAS2B, 16HBE, CFBE) and alveolar epithelial (A549) cells; test: LDH in supernatant of pulmonary cell lines; assay type: cell-based
Method: as §1
Human airway epithelial (BEAS2B, 16HBE, CFBE) and alveolar epithelial (A549) cells were cultured, plated on 12-well plates, serum starved overnight, and treated with increasing doses of ZnPor. Cell culture supernatants were collected after 48 h of treatment, and supernatants were then assayed for lactate dehydrogenase (LDH), a general marker of cell death released into the supernatant after cell lysis.

[4] = tested on: A549/U937; assay type: cell-based
Method: FIGS. 22A-22B show a lung co-culture (A549/U937) model after 24 hour exposure to ZnPor displaying no toxicity (FIG. 22A) and U937 stained and imaged after 24 hours of dark exposure to 50 μM ZnPor (FIG. 22B).

[5] = tested on: A549 cells; test: Lung cell toxicity, traditional cell culture; assay type: cell-based, human; details: concentration exceeding therapeutic range
From the text: Sample represented in graph is a traditional cell culture model and the cells were A549 cells—human lung epithelial cells.

[6] = tested on: planktonic PsA PAO1 cells; test: Syber Green entry into planktonic cells (permeabilization); assay type: cell-based, Pseudomonas aeruginosa; details: pre-treated planktonic PsA cells
Method: Syber Green™ can pass through the cell wall into PsA cells pre-treated with ZnPor (II) at concentrations as low as 1 μg/mL; this is below the MIC (4 ug/m). Cells treated with ZnPor (II) allowed the entry of the Syber Green molecule even at sub-MIC concentrations of ZnPor (II).

[7] = tested on: phage PEV2; test: Inactivation of phage PEV2 (PFU titer); parameters: species or system Pseudomonas phage PEV2
Method: Phage PEV2 was diluted to 10^9 PFU/mL in phage buffer and treated with ZnPor (25 μg/mL) for a total of 4 hours. A 300 W light was used to photoactivate ZnPor_light treatments for 20 minutes. Measurements of plaque forming units (PFU/mL) were taken at each timepoint by serially diluting phage to determine titer using a soft agar overlay protocol. Data from 3 separate experiments represents total mean±standard error, total (n=8).

[8] = tested on: Listeria monocytogenes; test: Killing of Listeria inside macrophages; assay type: cell-based; details: macrophages treated with ZnPor (II) vs control
Method: A growing number of bacteria are being discovered as having the ability to enter and grow within human cells. The model bacterium used to test this was: Listeria monocytogenes. This bacterium is well known for its ability to survive inside human cells and using actin tails (sourced from the host cell) to propel themselves out of one cell and into another. The L. monocytogenes bacteria were incubated with macrophages. […] Then macrophages were cracked open and plated on antibiotic plates to get a viable count of the number of cells taken up (control) and compared to macrophages treated with ZnPor (II).

[9] = tested on: Pseudomonas aeruginosa (GN); test: Killing activity against a range of bacteria; assay type: cell-based
[10] = tested on: Listeria monocytogenes; test: Killing activity against a range of bacteria; assay type: cell-based
[11] = tested on: Mycobacterium smegmatis (proxy for M. tuberculosis); test: Killing activity against a range of bacteria; assay type: cell-based
[12] = assay type: physicochemical
From the text: As used herein, “water soluble” refers to a property wherein a material is miscible in water, or in other words, is a capable of forming a homogenous solution with water at ambient conditions.

[13] = tested on: PsA PAO1; test: Minimum inhibitory concentration (MIC) of ZnPor (II)
[14] = tested on: ex-vivo grown lung cells; test: Toxicity to ex-vivo grown lung cells versus effective concentration

meso-5,10,15-tris(N-methyl-4-pyridyl)-20-(pentafluorophenyl)porphyrinatozinc(II), tris-p-toluene sulfonate [ZnPor]
biofilm clearing ([1]; 25 μg/mL ZnPor alone, 2 h): almost complete clearing of the biofilm
LIVE/DEAD state of biofilm ([1]; pre-treated with ZnPor (II) 4 μg/mL before adding PEV2 whole phage): only dead cells
biofilm formation by bioluminescence [2]: significantly less biofilm formation
LDH dose response ([3]; 16HBE, CFBE, and A549 cells): dose response of decreased LDH
LDH in cell culture supernatant vs treatment without ZnPor ([3]; 48 h of treatment, increasing doses): significantly less LDH
toxicity [4]: no toxicity
toxicity [5]: No toxicity was observed
lowest ZnPor (II) concentration allowing Syber Green entry [6]: 1 µg/mL
effect of photoactivation on killing ([7]; with photoactivation): quicker and greater killing
inactivation of viruses ([7]; without light activation): able to inactivate viruses without light activation
effect on bacteriophage PEV2 ([7]; without photoactivation): inactivates
number of Listeria cells in the macrophages [8]: a log reduction
killing [9]: effective at killing
killing [10]: effective at killing
killing [11]: effective at killing
water solubility [12]: water soluble
MIC [13]: 4 µg/mL
effective concentration, fold lower than that causing any toxicity [14]: up to 100 ×
